Assay results as given in patent US7674823B2, “DNA-PK inhibitors” (Cancer Research Technology Limited, priority 2001, dated 2010).

The molecules below were run against T1, Mammalian DNA-PK, isolated from Hela cell nuclear extract (Homo sapiens, UniProt P78527) (assay: DNA-PK inhibition assay (33P-ATP, filter binding)). Conditions: not given.
T1 construct: Mammalian DNA-PK, isolated from Hela cell nuclear extract; endogenous in cells; host or cells: HeLa cell nuclear extract (purified per Gell and Jackson 1999)
Assay type: biochemical
Description: In order to assess the inhibitory action of the compounds against DNA-PK in vitro, the following assay was used to determine IC50 values.
The total assay volume per well was 40 μl.
After 10 minutes of incubation at 30° C. the reactions were initiated by the addition of Na-ATP (50 μM final), ^33p-γATP and a 30mer double stranded DNA oligonucleotide (10 ng/μl) in a volume of 10 μl. Designated positive and negative reaction wells were done in combination with compound wells (unknowns) in order to calculate % enzyme activities. The plates were then shaken for 2 minutes and incubated at 30° C. for 45 minutes.
Following the incubation, the reactions were quenched by the addition of 50 μl 30% acetic acid to each well. The plates were then shaken for 5 minutes and the contents of each plate (80 μl from each well) transferred over to a 96 well Polyfiltronics filtration plate, containing P81-phosphocellulose membrane (TRADE MARK)(Whatman, UK). The solutions were vacuum pumped through the membrane and each well membrane washed four times using 300 μl of 15% acetic acid. The well membranes were then air dried and 20 μl of scintillant was added to each well.
The plates were transferred to a TopCount NXT (TRADE MARK) (Packard, UK) for scintillation counting. Values recorded are counts per minute (cpm) following a 1 minute counting time for each well.
The enzyme activity for each compound is then calculated using the following equation: […]
These are determined over a range of different concentrations, normally from 10 μM down to 0.01 μM. Such IC50 values are used as comparative values to identify increased compound potencies.

IC50 [nM]	SMILES
< 1000	COc1ccc(-c2cccc3c(=O)cc(N4CCOCC4)oc23)cc1 [Compound 385]
< 1000	O=c1cc(N2CCOCC2)oc2c(-c3cccc(-c4ccccc4)c3)cccc12 [Compound 389]
< 1000	O=c1cc(N2CCOCC2)oc2c(-c3ccc(CO)cc3)cccc12 [Compound 394]

SMILES	IC50 [nM]
O=C(NC1CN2CCC1CC2)c1ccc(-c2cc(=O)cc(N3CCOCC3)o2)cc1 (stereo not shown) [Compound 206]	< 1000

Same assay, conditions: IC50 of less than about 1 μM and/or % inhibition of more than about 50 at 1 μM; read-out: DNA-PK inhibition IC50 (particular efficacy)

IC50 [nM]	SMILES
< 1000	O=c1cc(-c2ccc3c(c2)CCO3)oc(N2CCOCC2)c1 [Compound 59]
< 1000	O=C(NC1CCC(O)CC1)c1cccc(-c2cc(=O)cc(N3CCOCC3)o2)c1 (stereo not shown) [Compound 114]
< 1000	O=C(NN1CCOCC1)c1cccc(-c2cc(=O)cc(N3CCOCC3)o2)c1 [Compound 146]
< 1000	COC(=O)c1cccc(COc2ccc3c(=O)cc(N4CCOCC4)oc3c2)c1 [Compound 340, Methyl 3-(2-(morpholin-4-yl)-4-oxo-4H-chromen-7-yloxymethyl)-benzoate]
< 1000	COC(=O)c1ccc(COc2ccc3c(=O)cc(N4CCOCC4)oc3c2)cc1 [Compound 339, Methyl 4-(2-(morpholin-4-yl)-4-oxo-4H-chromen-7-yloxymethyl)-benzoate]
< 1000	O=c1cc(-c2cccc3ccsc23)oc(N2CCOCC2)c1 [Compound 72]
< 1000	O=c1cc(N2CCC(CO)CC2)oc2c1ccc1ccccc12 [Compound 318, 2-(4-Hydroxymethyl-piperidin-1-yl)-benzo[h]chromen-4-one]
< 1000	O=C(NCCSCc1c(F)cccc1Cl)c1ccc(-c2cc(=O)cc(N3CCOCC3)o2)cc1 [Compound 187]
< 1000	O=c1cc(-c2ccc(CN3CCc4ccccc4C3)cc2)oc(N2CCOCC2)c1 [Compound 260]
< 1000	O=c1cc(N2CCOCC2)oc2c(-c3cccc4c3oc3ccccc34)cccc12 [Compound 410]
< 1000	CN(C)c1ccc(CNC(=O)c2cccc(-c3cc(=O)cc(N4CCOCC4)o3)c2)cc1 [Compound 105]
< 1000	O=c1cc(-c2ccc(CNCc3cccc(F)c3)cc2)oc(N2CCOCC2)c1 [Compound 249]
< 1000	COc1ccc(CCNC(=O)c2ccc(-c3cc(=O)cc(N4CCOCC4)o3)cc2)cc1 [Compound 167]
< 1000	O=C(NCc1cc(F)cc(C(F)(F)F)c1)c1ccc(-c2cc(=O)cc(N3CCOCC3)o2)cc1 [Compound 179]
< 1000	O=C1c2ccccc2C(=O)N1Cc1cccc(-c2ccc3c(=O)cc(N4CCOCC4)oc3c2)c1 [Compound 375]
< 1000	Nc1cccc(CNC(=O)c2ccc(-c3cc(=O)cc(N4CCOCC4)o3)cc2)c1 [Compound 182]
< 1000	O=C(Cc1cccs1)Nc1ccc(-c2cc(=O)cc(N3CCOCC3)o2)cc1 [Compound 271]
< 1000	O=c1cc(N2CCOCC2)oc2cc(OCc3cccc(Cl)c3)ccc12 [Compound 341, 7-(3-Chlorobenzyloxy)-2-(morpholin-4-yl)-chromen-4-one]
< 1000	COCC(Cc1ccccc1)NC(=O)c1ccc(-c2cc(=O)cc(N3CCOCC3)o2)cc1 (stereo not shown) [Compound 200]
< 1000	O=C(NCc1cccc(C(F)(F)F)c1)c1ccc(-c2cc(=O)cc(N3CCOCC3)o2)cc1 [Compound 178]
< 1000	NCc1cccc(CNC(=O)c2cccc(-c3cc(=O)cc(N4CCOCC4)o3)c2)c1 [Compound 107]

IC50 [nM]	SMILES
< 1000	O=C(NCCOc1ccccc1)c1ccc(-c2cc(=O)cc(N3CCOCC3)o2)cc1 [Compound 202]
< 1000	CCN(CC)CCCNC(=O)c1cccc(-c2cc(=O)cc(N3CCOCC3)o2)c1 [Compound 118]
< 1000	N#CCNC(=O)c1cccc(-c2cc(=O)cc(N3CCOCC3)o2)c1 [Compound 73]
< 1000	CC(O)C(=O)Nc1ccc(-c2cc(=O)cc(N3CCOCC3)o2)cc1 (stereo not shown) [Compound 268]
< 1000	O=C(CNC(=O)c1cccc(-c2cc(=O)cc(N3CCOCC3)o2)c1)c1cccc([N+](=O)[O-])c1 [Compound 123]
< 1000	O=C(c1cccc(-c2cc(=O)cc(N3CCOCC3)o2)c1)N1CCCC(CO)C1 (stereo not shown) [Compound 140]
< 1000	O=c1cc(-c2ccc3c(c2)OCCO3)oc(N2CCOCC2)c1 [Compound 60]
< 1000	CC(=O)c1ccc(-c2cccc3c(=O)cc(N4CCOCC4)oc23)s1 [Compound 409]
< 1000	O=C(NC1CC1)c1cccc(-c2cc(=O)cc(N3CCOCC3)o2)c1 [Compound 74]
< 1000	COCCNC(=O)c1cccc(-c2cc(=O)cc(N3CCOCC3)o2)c1 [Compound 127]
< 1000	COC(=O)C(NCc1ccc(-c2cc(=O)cc(N3CCOCC3)o2)cc1)c1ccccc1 (stereo not shown) [Compound 247]
< 1000	O=C(NCc1cc(C(F)(F)F)cc(C(F)(F)F)c1)c1ccc(-c2cc(=O)cc(N3CCOCC3)o2)cc1 [Compound 176]
< 1000	O=c1cc(-c2ccc(CNCc3ccc(OC(F)(F)F)cc3)cc2)oc(N2CCOCC2)c1 [Compound 252]
< 1000	O=C(c1cccc(-c2cc(=O)cc(N3CCOCC3)o2)c1)N1CCN(C/C=C/c2ccccc2)CC1 [Compound 143]
< 1000	CC(C)(C)OC(=O)CNC(=O)c1ccc(-c2cc(=O)cc(N3CCOCC3)o2)cc1 [Compound 194]
< 1000	COCCCNC(=O)c1cccc(-c2cc(=O)cc(N3CCOCC3)o2)c1 [Compound 125]
< 1000	O=C(NC(CO)CO)c1ccc(-c2cc(=O)cc(N3CCOCC3)o2)cc1 [Compound 190]
< 1000	Cc1ccccc1CNC(=O)c1ccc(-c2cc(=O)cc(N3CCOCC3)o2)cc1 [Compound 163]
< 1000	O=C(NCc1ccccn1)c1ccc(-c2cc(=O)cc(N3CCOCC3)o2)cc1 [Compound 214]
< 1000	CN(C)CCN(Cc1ccccc1)C(=O)c1cccc(-c2cc(=O)cc(N3CCOCC3)o2)c1 [Compound 106]
< 1000	O=C(Nc1ccc(-c2cc(=O)cc(N3CCOCC3)o2)cc1)C1CCCN1C(=O)C(F)(F)F (stereo not shown) [Compound 279]

IC50 [nM]	SMILES
< 1000	O=c1cc(N2CCOCC2)oc2cc(OCCS(=O)(=O)c3ccccc3)ccc12 [Compound 366]
< 1000	Nc1ccccc1CNCc1ccc(-c2cc(=O)cc(N3CCOCC3)o2)cc1 [Compound 255]
< 1000	O=C(c1cccc(-c2cc(=O)cc(N3CCOCC3)o2)c1)N1CCOCC1 [Compound 139]
< 1000	N#Cc1ccc(COc2ccc3c(=O)cc(N4CCOCC4)oc3c2)cc1 [Compound 338, 7-(4-cyano-benzyloxy)-2-morpholin-4-yl-chromen-4-one]
< 1000	O=C(NCc1ccco1)c1ccc(-c2cc(=O)cc(N3CCOCC3)o2)cc1 [Compound 211]
< 1000	CCOC(=O)CC(=O)Nc1ccc(-c2cc(=O)cc(N3CCOCC3)o2)cc1 [Compound 269]
< 1000	Nc1cccc(CNC(=O)c2cccc(-c3cc(=O)cc(N4CCOCC4)o3)c2)c1 [Compound 104]
< 1000	O=C(NC1CCN(Cc2ccccc2)CC1)c1ccc(-c2cc(=O)cc(N3CCOCC3)o2)cc1 [Compound 205]
< 1000	O=C(NCc1ccc(OC(F)(F)F)cc1)c1ccc(-c2cc(=O)cc(N3CCOCC3)o2)cc1 [Compound 175]
< 1000	CC(CNC(=O)c1ccc(-c2cc(=O)cc(N3CCOCC3)o2)cc1)c1ccc(Cl)cc1 (stereo not shown) [Compound 173]
< 1000	COc1cccc(CNCc2ccc(-c3cc(=O)cc(N4CCOCC4)o3)cc2)c1OC [Compound 253]
< 1000	O=c1cc(N2CCOCC2)oc2c(-c3cc4ccccc4s3)cccc12 [Compound 408]
< 1000	O=C(NCc1cccs1)c1cccc(-c2cc(=O)cc(N3CCOCC3)o2)c1 [Compound 131]
< 1000	O=c1cc(N2CCOCC2)oc2c(-c3ccsc3)cccc12 [Compound 403]
< 1000	O=C(CSc1ccccc1)Nc1ccc(-c2cc(=O)cc(N3CCOCC3)o2)cc1 [Compound 270]
< 1000	O=C(NCCOc1ccccc1)c1cccc(-c2cc(=O)cc(N3CCOCC3)o2)c1 [Compound 126]
< 1000	O=C(NCCCNC(=O)c1ccc(-c2cc(=O)cc(N3CCOCC3)o2)cc1)OCc1ccccc1 [Compound 203]
< 1000	CC(=O)OC(C)C(=O)Nc1ccc(-c2cc(=O)cc(N3CCOCC3)o2)cc1 (stereo not shown) [Compound 267]
< 1000	O=C(NCCCc1ccccc1)c1ccc(-c2cc(=O)cc(N3CCOCC3)o2)cc1 [Compound 170]
< 1000	CSCCC(CO)NC(=O)c1ccc(-c2cc(=O)cc(N3CCOCC3)o2)cc1 (stereo not shown) [Compound 192]

Same assay, conditions: concentration at which 50% of the enzyme activity is inhibited; read-out: DNA-PK Inhibition IC50

IC50 [nM]	SMILES
650	O=c1cc(N2CCOCC2)oc2cc(OCc3cccc(Cl)c3)ccc12 [Compound 341, 7-(3-Chlorobenzyloxy)-2-(morpholin-4-yl)-chromen-4-one]
20000	O=c1cc(N2CCSC2)oc2c1ccc1ccccc12 [Compound 330, 2-(Thiazolidin-3-yl)-benzo[h]chromen-4-one]
950	N#Cc1ccc(COc2ccc3c(=O)cc(N4CCOCC4)oc3c2)cc1 [Compound 338, 7-(4-cyano-benzyloxy)-2-morpholin-4-yl-chromen-4-one]

Same assay, conditions: read-out: DNA-PK Inhibition IC50

SMILES	IC50 [nM]
O=c1cc(N2CC[C@H](O)C2)nc2c3ccccc3ccn12 [Compound 12, 2-((S)-3-Hydroxy-pyrrolin-1-yl)-pyrimido[2,1-a]isoquinolin-4-one]	10500
